Test results taken from article PMC4072806, “Defining Immune Engagement Thresholds for In Vivo Control of Virus-Driven Lymphoproliferation” (PLoS Pathogens, 2014).
Read-outs that look alike come from different tables or passages of the source. No end group written: not given here.

How the values were obtained:
H2K^b = target: T1, H2K^b (Mus musculus, UniProt P01901); type: cell-based
T1 construct: […]; endogenous in cells; host or cells: RMA/S cells (TAP-deficient)
Method: H2K^b stabilization was determined with TAP-deficient RMA/S cells. These were incubated overnight at 26°C to promote the export of empty H2K^b complexes, then loaded with graded concentrations of OVA or APL peptides (Thermo Scientific) for 2 h at 26°C and subsequently transferred to 37°C for 2 h to destabilize empty MHC molecules. The cells were then washed twice, stained with anti-H2K^b (AF6-88.5.5.3, eBioscience), and analysed on a LSR Fortessa (BD Biosciences). Mean fluorescence intensities were determined with FlowJo (Tree Star). To measure the ex vivo stimulation of naïve OT-I T cells by OVA and APLs, CD8^+ T cells from the spleens of naïve OT-I mice were purified by negative selection (CD8^+ T cell isolation kit, Miltenyi Biotech); for equivalent peptide/MHC class I numbers, irradiated (7500 rads) RMA/S cells were loaded with different peptides at 26°C, then incubated at 37°C; and 5×10^4 OT-I T cells were cultured with 2.5×10^4 RMA/S cells for 72 h at 37°C. IFNγ levels in culture supernatants were measured by ELISA (DuoSet ELISA development kit, R&D Systems). The data were fitted to sigmoidal dose-response curves and EC50 values calculated using GraphPad Prism.

[1] = test system: OT-I CTL (H2K^b-OVA-specific TcR of OT-I); experiment: Functional avidity of OT-I CTL by IFNγ production (ELISA); type: cell-based, mouse; conditions: Figure 1C, naive OT-I CD8+ T cells with peptide-loaded irradiated RMA/S cells, 72 h 37°C, repeated in duplicates 4 times, read-out: OT-I sensitivity EC50
[2] = target: H2K^b (MHC class I, empty complexes on TAP-deficient RMA/S cells) (mouse (endogenous in RMA/S))
[3] = Figure 1B, TAP-deficient RMA/S cells, peptide 2 h 26°C then 2 h 37°C, anti-H2K^b FACS MFI, experiment repeated 3 times, read-out: EC50 (H2K^b stabilization)

Row | Compound | EC50 [1] [nM] | EC50 (H2K^b; [3]) [nM] | further results
1 | CC[C@H](C)[C@H](NC(=O)[C@@H](NC(=O)[C@@H](N)CO)[C@@H](C)CC)C(=O)N[C@@H](CC(N)=O)C(=O)N[C@@H](Cc1ccccc1)C(=O)N[C@@H](CCC(=O)O)C(=O)N[C@@H](CCCCN)C(=O)N[C@@H](CC(C)C)C(=O)O [OVA, reference compound] | 0.0182 |  | EC50 (H2K^b; RMA/S cells, read-out: concentration giving 50% maximal H2K^b stabilization (EC50)): 40 nM
2 | A8 altered peptide ligand of OVA (mutated anchor residue) |  |  | fold more peptide than E1 for equivalent H2K^b stabilization [2]: 10 fold
3 | E1 altered peptide ligand of OVA (EIINFEKL) |  |  | fold more peptide than OVA for equivalent H2K^b stabilization [2]: 6 fold
4 | EIINFEKL [E1] | 7780 | 235 | 
5 | OVA peptide, amino acid residues 257-264 of ovalbumin (SIINFEKL) |  |  | EC50 [2]: 40 nM
6 | SIIGFEKL [G4] | 3610 | 34 | 
7 | SIINFEKA [A8] | 10300 | 2470 | 
8 | SIIQFEKL [Q4] | 0.243 | 30 | 
9 | SIIRFEKL [R4] |  | 56 | 
10 | SIIVFEKL [V4] | 68.5 | 63 | 
